Experimental data reported in patent publication US5279835A, “Binder-free orally administrable tablet containing 3-oxygermylpropionic acid” (Sanwa Kagaku Kenkyusho Co. Ltd., priority 1991, dated 1994).

Tests used:
[1] = test system: spontaneous nephritis in MRL/1 mice; assay: Prevention of spontaneous nephritis in MRL/1 mice (urinary protein, blood urea nitrogen, histopathology); assay type: in vivo
Description: The effect of 3-OGP on preventing spontaneous nephritis in MRL/1 mice was investigated.
2-B) The preparation of Ex. 6 was orally administrated to test animals--MRL/1 mice of six-week old, 15 for each group--at daily doses of 0.1 mg/kg, 1.0 mg/kg and 10.0 mg/kg calculated as 3-OGP twice a week over 12 weeks. It is noted that this preparation was administrated to each animal in the form of a feed mix. […] In addition, the urea nitrogen content of blood on the day following the final administration were measured to make sero-biochemical as well as histopathological estimations of the action of the 3-OGP compositions on nephritis.
It is noted that the urinary protein was determined with Protein Pretest (made by Wako Junyaku) and the urea nitrogen content of blood was estimated with Urea Nitrogen Test B: Urease/Indophenol Method (made by Wako Junyaku).

[2] = test system: delayed type hypersensitivity reactions (DTH reactions) using sheep red blood cells (SRBCs) as antigens; assay: Delayed type hypersensitivity (DTH) reaction, pododerm swelling, in Sarcoma-180 bearing ICR mice sensitized with SRBCs; assay type: in vivo; conditions: n = 10; for Pododerm Swelling, Average: Table 1-2 (MGWC 55.5, SMG 115.5)
Description: The effects of 3-OGP, salts and hydroxypropylcellulose incorporated in compositions were investigated by delayed type hypersensitivity reactions (DTH reactions) using sheep red blood cells (SRBCs) as antigens.
Sarcoma-180 cells (10^6) were intraperitoneally transplanted in test animals--ICR mice (seven-week old), 10 for each group. Then, SRBCs (10^6) were injected into each animal through the vein of the tail for sensitization.
Four days later, SRBCs (2×10^8) were injected into the pododerm of the right hind leg to induce the DTH reaction and, 24 hours later, the thickness of the pododerm was measured. Note that the test drugs were administrated to the animals in the form of a feed mix 4 days before sensitization.

3-oxygermylpropionic acid [Example 3-OGP]
increase in urea nitrogen content of blood ([1]; 10 mg/kg of 3-OGP): significantly inhibited | increase in urinary protein ([1]; 10 mg/kg of 3-OGP, after 12 weeks): significantly inhibited even after 12 weeks | glomeruli with lesion severer than mediocre membranous glomerulonephritis ([1]; group treated with 3-OGP, control 60%): 20-36% | urinary protein increase ([1]; groups treated with 3-OGP, control increased after 9 to 10 weeks): any urinary protein increase was not found | Urinary Protein in % ([1]; preparation of Ex. 6, 0.1 mg/kg as 3-OGP, after 10 weeks, positive = 100 mg/dl or more (control 52.3)): 28.7% | Urinary Protein in % ([1]; preparation of Ex. 6, 0.1 mg/kg as 3-OGP, after 11 weeks (control 66.6)): 47.1% | Urinary Protein in % ([1]; preparation of Ex. 6, 0.1 mg/kg as 3-OGP, after 12 weeks (control 91.3)): 65.6% | Urinary Protein in % ([1]; preparation of Ex. 6, 1 mg/kg as 3-OGP, after 10 weeks (control 52.3)): 28.1% | Urinary Protein in % ([1]; preparation of Ex. 6, 1 mg/kg as 3-OGP, after 11 weeks (control 66.6)): 23.8% | Urinary Protein in % ([1]; preparation of Ex. 6, 1 mg/kg as 3-OGP, after 12 weeks (control 91.3)): 51.0% | Urinary Protein in % ([1]; preparation of Ex. 6, 10 mg/kg as 3-OGP, after 10 weeks (control 52.3)): 15.8% | Urinary Protein in % ([1]; preparation of Ex. 6, 10 mg/kg as 3-OGP, after 11 weeks (control 66.6)): 27.5% | Urinary Protein in % ([1]; preparation of Ex. 6, 10 mg/kg as 3-OGP, after 12 weeks (control 91.3)): 53.3% | Pododerm Swelling, Average Standard Deviation ([2]; Table 1-1, first series (MGWC 47.1, SMG 115.4), 0.1 mg/kg in feed mix): 55.1 3.3 × 0.01 mm | Pododerm Swelling, Average Standard Deviation ([2]; Table 1-1, first series (MGWC 47.1, SMG 115.4), 1 mg/kg in feed mix): 73.8 5.7 × 0.01 mm | Pododerm Swelling, Average Standard Deviation ([2]; Table 1-1, first series (MGWC 47.1, SMG 115.4), 10 mg/kg in feed mix): 70.2 5.1 × 0.01 mm | Pododerm Swelling, Average Standard Deviation ([2]; Table 1-1, second series (MGWC 48.9, SMG 117.4), 0.1 mg/kg in feed mix): 64.3 6.4 × 0.01 mm | Pododerm Swelling, Average Standard Deviation ([2]; Table 1-1, second series (MGWC 48.9, SMG 117.4), 1 mg/kg in feed mix): 72.1 5.5 × 0.01 mm | Pododerm Swelling, Average Standard Deviation ([2]; Table 1-1, second series (MGWC 48.9, SMG 117.4), 10 mg/kg in feed mix): 66.3 3.1 × 0.01 mm | Pododerm Swelling, Average ([2]; 0.1 mg/kg in feed mix): 63.5 × 0.01 mm | Pododerm Swelling, Average ([2]; 1 mg/kg in feed mix): 77.0 × 0.01 mm | Pododerm Swelling, Average ([2]; 10 mg/kg in feed mix): 73.2 × 0.01 mm
